Publication PMC6930223 (Scientific Reports, 2019)

Legend:
hERG1a/Hsp90 complexes = test: Co-immunoprecipitation of cg-hERG1a with chaperone; assay type: cell-based, human; conditions: 10 µM, 24 h, vs untreated control
Protocol: (§1) The co-immunoprecipitation method was adapted and modified slightly from the previously described methodologies[40],[52]. The treated recombinant cells were incubated for 15 min at room temperature with PBS containing cross-linker 1.5 mM dithiobis (succinimidyl propionate) (DSP, Pierce USA). The cross-linker was quenched by addition of 10 mM Tris (pH 7.5) and incubated for 10 min at room temperature. Cells were detached in 10 ml ice-cold PBS and centrifuged at 300 x g for 5 min at 4 °C. The pellet was then resuspended in 300 µl ice-cold complete diluted RIPA lysis buffer containing 0.1% (v/v) NP40, 50 mM Tris pH 7.5, 150 mM NaCl, 1x PMSF solution, 1x sodium orthovanadate solution and 1x protease inhibitor cocktail solution. Subsequently, the cell suspension was incubated at 4 °C for 30 min with constant agitation and finally centrifuged at 14, 000 rpm for 10 min at 4 °C. The supernatant was saved for total protein quantitation and subsequently for co-immunoprecipitation experiments.
(§2) Briefly, 500 µg of isolated total protein was mixed with 2 µg of hERG1 rabbit polyclonal IgG (Santa Cruz Biotechnology Inc., USA), mouse Hsp70/Hsc70 monoclonal antibody (Santa Cruz Biotechnology Inc., USA) or mouse Hsp90α/β monoclonal antibody (Santa-Cruz Biotechnology Inc., USA) respectively and incubated on ice on a rotary shaker overnight. Subsequently, 30 µl of protein A/G PLUS-agarose immunoprecipitation reagent (Santa Cruz Biotechnology Inc., USA) was added into the mixture, and incubated on ice on a shaker for 8 h and subsequently stored in 4 °C overnight. The mixture was centrifuged at 1500 rpm for 5 min at 4 °C, and the pellet was washed with ice-cold PBST, each time repeating the centrifugation process. Finally, the pellet was resuspended in 25 µl 1x Laemmli sample buffer (Bio-Rad Laboratories Inc., USA) with 2.5% (v/v) β-mercaptoethanol, and then heated at 70 °C for 2 h to reverse cross-linking and to release the immunoprecipitated protein from A/G PLUS-agarose beads. The samples were centrifuged at 1500 rpm for 5 min at 4 °C to pellet the agarose beads and 20 µl of the supernatant was used for subsequent SDS-PAGE and immunoblotting analysis as described previously.
(§3) To analyze the immunoprecipitated proteins, the membrane was probed with rabbit anti-potassium channel Kv11.1 extracellular antibody (1:200) (Sigma-Aldrich, USA), mouse Hsp70/Hsc70 monoclonal antibody (1:10, 000) and mouse Hsp90α/β monoclonal antibody (1:10, 000) in the same container. […] To quantify hERG1/chaperone interactions, image densities of the core-glycosylated (cg) hERG1 protein found in immunoprecipitations with anti-hERG1 antibody were used as a measure of total hERG1a protein present. […]

hERG1a/Hsp70 complexes = test: Co-immunoprecipitation of cg-hERG1a with chaperone; assay type: cell-based, human; conditions: 24 h
Protocol: as §1, §2, §3

[1] = test system: rapidly delayed rectifier potassium current (IKr) in hiPSC-CMs; set-up: method as in PMID 25535742; conditions: cited from earlier work
hERG1b mRNA = test: RT-qPCR mRNA expression in HEK293-hERG1a/1b cells; assay type: cell-based, human; conditions: all concentrations, 24 h at 37 °C
Protocol: (§4) Briefly, total cellular RNA was isolated from treated cells using RNeasy® Plus Mini kit (Qiagen, Germany) following manufacturer’s instruction. The optimized RT-qPCR assay was performed using CFX96™ real-time PCR system (Bio-Rad Laboratories Inc., USA) with the following cycle parameters: 10 min at 50 °C for reverse transcription, 1 min at 95 °C for activation of Taq polymerase, followed by 40 cycles of 10 s at 95 °C for denaturation and 30 s at 53.9 °C for annealing and data acquisition. Specifically, the assay was performed using 100 ng of total RNA and iTaq™ Universal SYBR® Green One-Step Kit (Bio-Rad Laboratories Inc., USA) in 10 µl of reaction volume. A melt curve analysis was computed at the end of the qPCR cycles to determine the specificity of the primers. The results were analyzed using CFX Manager software version 3.1 (Bio-Rad Laboratories Inc., USA). The mRNA expressions of hERG1a/1b were presented as fold changes normalized to endogenous reference genes, ACTB and GAPDH, and relative to the control gene[69]–[71]. Each experiment was conducted in triplicate and data are presented as mean fold changes of three independent experiments.

hERG1a mRNA = test: RT-qPCR mRNA expression in HEK293-hERG1a/1b cells; assay type: cell-based, human; conditions: all concentrations, 24 h at 37 °C
Protocol: as §4

For mitragynine, which “relative expression of hERG1a/Hsp90 complexes” value (hERG1a/Hsp90 complexes) is on record?
The value was “significantly increased”.

What about the “up-regulation of hERG1a interacting with Hsp90” value (hERG1a/Hsp90 complexes) of the same substance?
The value was “approximately 2.5 fold”.

What about the “association of hERG1a/Hsp70” value (hERG1a/Hsp70 complexes; 1 µM) of the same substance?
Its value is “not significantly affected”.

What about the “association of hERG1a/Hsp70” value (hERG1a/Hsp70 complexes; 10 μM) of the same substance?
The value was “not significantly affected”.

What about the “action potential duration at 50 and 90% repolarization (APD50 and APD90)” value ([1]; 10 µM, hiPSC-CMs) of the same substance?
The value was “significantly prolonged”.

And the IC50 ([1]; read-out: IC50 of IKr suppression in hiPSC-CMs)?
Its IC50 is 910 nM.

And the “effect on mRNA expression of hERG1b” value (hERG1b mRNA)?
The value was “did not affect”.

And the “effect on mRNA expression of hERG1a” value (hERG1a mRNA)?
The value was “did not affect”.
